From patent US9458176B2, “Tetrahydroimidazo(1,5-D)[1,4]oxazepine derivative” (Eisai R&D Management Co., Ltd., priority 2013, dated 2016)

Target: human mGluR2 (Homo sapiens (Human), UniProt Q14416)
Test: [35S]GTPγS binding assay (Affinity to mGluR2)
Format: biochemical
Conditions: cell membrane fraction of HEK293 cells stably expressing human mGluR2; glutamic acid 10 μM
Protocol: (Preparation of Cell Membrane Fraction of HEK293 Cells Stably Expressing Human Metabotropic Glutamate Receptor 2 (mGluR2))
HEK293 cells stably expressing human mGluR2 and human glutamate transporter SLC1A3 were cultured in a Dulbecco's modified Eagle's medium with 10% fetal bovine serum (50 units/mL of penicillin, 50 μg/mL of streptomycin, 60 μg/mL of geneticin, 400 μg/mL of hygromycin B and 2 mM of glutamine) at 37° C. under 5% CO2. Confluent cell cultures were washed twice with PBS(−), and then scraped off with a cell scraper, and subjected to centrifugal separation at 4° C. and 1500 rpm for 5 minutes for collecting cells. The centrifuged sediment (cell pellet) was homogenized in a 20 mM HEPES buffer containing 10 mM EDTA (pH 7.4) by using sonicator and centrifuged at 4° C. and 1500×g for 30 minutes. The supernatant (soluble fraction) was subjected to the centrifugal separation at 4° C. and 40,000×g for 30 minutes, and thus, insoluble fraction was obtained. After additional centrifugally washing the obtained fraction with 20 mM HEPES buffer containing 10 mM EDTA (pH 7.4), the pellet was centrifugally suspended with a 20 mM HEPES buffer containing 0.1 mM EDTA, and the cell membrane fraction was obtained by the centrifugal separation at 4° C. and 40,000×g for 30 minutes. The thus obtained cell membrane fraction was suspended in a 20 mM HEPES buffer containing 0.1 mM EDTA in a protein concentration of 3 mg/mL, which was stored at −80° C.
([^35S]GTPγS Binding Assay)
The frozen cell membrane fraction prepared as described above was thawed before use, and the resultant was diluted with a buffer for a binding assay (final concentrations: 20 mM HEPES, 100 mM NaCl, 1 mM MgCl2, 3 μM GDP, 300 μg/mL saponin, 0.1% BSA). The compound of each example was added to a cell membrane fraction containing 1.8 to 3 μg/assay of membrane protein on a plate, followed by incubation at room temperature for 30 minutes. Thereafter, with glutamic acid (in a final concentration of 10 μM) added thereto, incubation was performed at room temperature for 15 minutes, and thereafter, [^35S]GTPγS (in a final concentration of 0.8 kBq) and 588 μg WGA-SPA beads were added thereto, followed by incubation at room temperature for 1 hour. After the incubation, the plate was subjected to the centrifugal separation at 2,500 rpm and room temperature, and then, membrane cell binding radioactivity was measured with a top count.
A [^35S]GTPγS binding amount obtained by performing the above-described reaction in the absence of glutamic acid was defined as nonspecific binding, and a difference from a [^35S]GTPγS binding amount obtained in the presence of glutamic acid was defined as specific binding. On the basis of ratios of inhibiting the specific binding at various concentrations of the compounds of the respective examples, inhibition curves were obtained. Concentrations of the compounds of the respective examples at which the specific [^35S]GTPγS binding amount was suppressed by 50% (IC50 values) were calculated on the basis of the inhibition curves and shown in Tables 8 and 9.

human mGluR2, sequence (Q14416 19-872): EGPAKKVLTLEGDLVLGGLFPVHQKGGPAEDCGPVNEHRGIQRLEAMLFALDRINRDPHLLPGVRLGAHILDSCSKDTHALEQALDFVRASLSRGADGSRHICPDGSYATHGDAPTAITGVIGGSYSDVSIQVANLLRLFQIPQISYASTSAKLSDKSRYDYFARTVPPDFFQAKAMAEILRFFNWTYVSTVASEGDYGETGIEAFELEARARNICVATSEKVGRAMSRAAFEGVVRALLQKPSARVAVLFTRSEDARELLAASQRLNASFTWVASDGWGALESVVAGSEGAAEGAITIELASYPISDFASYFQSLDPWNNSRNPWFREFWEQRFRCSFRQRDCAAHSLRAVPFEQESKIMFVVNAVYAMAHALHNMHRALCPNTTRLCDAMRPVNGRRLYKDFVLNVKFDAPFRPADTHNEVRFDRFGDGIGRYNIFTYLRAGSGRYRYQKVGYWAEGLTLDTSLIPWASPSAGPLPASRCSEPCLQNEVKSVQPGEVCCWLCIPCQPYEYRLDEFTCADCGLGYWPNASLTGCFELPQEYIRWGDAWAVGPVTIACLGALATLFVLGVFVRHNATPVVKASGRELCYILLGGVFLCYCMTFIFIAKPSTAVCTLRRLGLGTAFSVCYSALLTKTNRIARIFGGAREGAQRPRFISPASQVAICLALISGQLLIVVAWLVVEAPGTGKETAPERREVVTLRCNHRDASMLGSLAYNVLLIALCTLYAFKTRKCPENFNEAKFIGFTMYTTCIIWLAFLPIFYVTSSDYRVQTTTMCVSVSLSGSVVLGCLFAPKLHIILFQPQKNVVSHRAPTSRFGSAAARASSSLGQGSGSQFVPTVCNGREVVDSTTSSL

Row | Structure (SMILES) | IC50 [nM]
1 | Cc1cc(-c2nc(-c3ccc(OC(F)(F)F)cc3)n3c2CCO[C@H](C)C3)cc(C)n1 [Example 51] | 7.8
2 | Cc1cc(-c2nc(-c3cccc(OC(F)(F)F)c3)n3c2CCO[C@H](C)C3)cc(C)n1 [Example 64] | 31.2
3 | Cc1cc(-c2nc(-c3ccc(OC(F)(F)F)c(C)c3)n3c2CCO[C@H](C)C3)cc(C)n1 [Example 67] | 4.7
4 | Cc1cc(-c2nc(-c3ccc(OC(F)(F)F)cc3)n3c2CCO[C@H](CF)C3)cc(C)n1 [Example 69] | 20.9
5 | Cc1cc(-c2nc(-c3ccc(OC(F)(F)F)cc3)n3c2CCO[C@H](CF)C3)ccn1 [Example 70] | 25.5
6 | COc1cc(-c2nc(-c3cc(C)nc(C)c3)c3n2C[C@@H](CF)OCC3)ccc1C [Example 71] | 18.9
7 | Cc1cc(-c2nc(-c3ccc(Cl)c(C)c3)n3c2CCO[C@H](CF)C3)cc(C)n1 [Example 73] | 24.8
8 | Cc1cc(-c2nc(-c3ccc(Cl)c(Cl)c3)n3c2CCO[C@H](CF)C3)cc(C)n1 [Example 76] | 20.9
9 | COc1cc(-c2nc(-c3cc(C)nc(C(F)F)c3)c3n2C[C@@H](CF)OCC3)ccc1C [Example 81] | 7.1
10 | CCOc1cc(-c2nc(-c3cc(C)nc(C)c3)c3n2C[C@@H](C)OCC3)ccc1C(F)(F)F [Example 82] | 1.1
11 | C[C@@H]1Cn2c(-c3ccc(OC(F)(F)F)cc3)nc(-c3ccnc(CF)c3)c2CCO1 [Example 85] | 29.7
12 | Cc1cc(-c2nc(-c3ccc(OC(F)(F)F)cc3)n3c2CCO[C@H](C)C3)cc(CF)n1 [Example 86] | 4.4
13 | Cc1cc(-c2nc(-c3ccc(Cl)c(Cl)c3)n3c2CCO[C@H](C)C3)cc(CF)n1 [Example 89] | 13.2
14 | COc1cc(-c2nc(-c3cc(C)nc(CF)c3)c3n2C[C@@H](CF)OCC3)ccc1Cl [Example 91] | 16.1
15 | Cc1cc(-c2nc(-c3ccc(F)c(OCC(F)F)c3)n3c2CCOCC3)cc(C)n1 [Example 92] | 95.8
16 | Cc1cc(-c2nc(-c3ccc(F)c(OCC(F)(F)F)c3)n3c2CCOCC3)cc(C)n1 [Example 93] | 28.7
17 | Cc1cc(-c2nc(-c3ccc(F)c(OCC4CC4)c3)n3c2CCOCC3)cc(C)n1 [Example 94] | 34.9
18 | Cc1cc(-c2nc(-c3ccc(F)c(OCC(C)C)c3)n3c2CCOCC3)cc(C)n1 [Example 95] | 49.5
19 | CCCOc1cc(-c2nc(-c3cc(C)nc(C)c3)c3n2CCOCC3)ccc1F [Example 96] | 59.8

Row | Structure (SMILES) | IC50 [nM]
20 | Cc1cc(-c2nc(-c3ccc(F)c(OCC4CCC4)c3)n3c2CCOCC3)cc(C)n1 [Example 97] | 25.4
21 | Cc1cc(-c2nc(-c3ccc(F)c(OCC4CCC4)c3)n3c2CCO[C@H](C)C3)cc(C)n1 [Example 98] | 3.1
22 | Cc1cc(-c2nc(-c3ccc(F)c(OCC4(C)COC4)c3)n3c2CCO[C@H](C)C3)cc(C)n1 [Example 99] | 103
23 | CCOc1cc(-c2nc(-c3cc(C)nc(C)c3)c3n2CCOCC3)ccc1Cl [Example 102] | 22.7
24 | Cc1cc(-c2nc(-c3ccc(Cl)c(Cl)c3)n3c2CCOCC3)cc(C)n1 [Example 103] | 26
25 | Cc1cc(-c2nc(-c3ccc(Cl)c(F)c3)n3c2CCOCC3)cc(C)n1 [Example 105] | 92.1
26 | Cc1cc(-c2nc(-c3ccc(OC(F)(F)F)c(F)c3)n3c2CCOCC3)cc(C)n1 [Example 106] | 20.9
27 | Cc1cc(-c2nc(-c3ccc(C(F)(F)F)c(F)c3)n3c2CCOCC3)cc(C)n1 [Example 107] | 54
28 | Cc1cc(-c2nc(-c3ccc(Cl)c(C(F)(F)F)c3)n3c2CCOCC3)cc(C)n1 [Example 108] | 19.2
29 | Cc1cc(-c2nc(-c3ccc(C(F)(F)F)c(Cl)c3)n3c2CCOCC3)cc(C)n1 [Example 109] | 9.1
30 | Cc1cc(-c2nc(-c3ccc(Cl)c(C)c3)n3c2CCOCC3)cc(C)n1 [Example 110] | 64.2
31 | Cc1cc(-c2nc(-c3ccc(Cl)c(C#N)c3)n3c2CCOCC3)cc(C)n1 [Example 111] | 25.2
32 | Cc1cc(-c2nc(-c3ccc(OC(F)(F)F)c(Cl)c3)n3c2CCOCC3)cc(C)n1 [Example 112] | 17.9
33 | Cc1cc(-c2nc(-c3ccc(C(F)(F)F)c(C)c3)n3c2CCOCC3)cc(C)n1 [Example 113] | 27
34 | Cc1cc(-c2nc(-c3ccnc(F)c3)c3n2CCOCC3)ccc1OC(F)(F)F [Example 115] | 61.7
35 | Cc1cc(-c2nc(-c3ccc(OC(F)(F)F)c(C#N)c3)n3c2CCOCC3)cc(C)n1 [Example 116] | 33.8
36 | COc1cc(-c2nc(-c3cc(C)nc(C)c3)c3n2CCOCC3)ccc1OC(F)(F)F [Example 117] | 22
37 | Cc1cc(-c2nc(-c3ccc(OC(F)(F)F)c(C)c3)n3c2CCOCC3)ccn1 [Example 118] | 10.9

Continued, values first:

Row | IC50 [nM] | Structure (SMILES)
38 | 20.5 | Cc1cc(-c2nc(-c3ccc(Cl)c(C)c3)n3c2CCO[C@H](C)C3)cc(C)n1 [Example 52]
39 | 21.3 | COc1cc(-c2nc(-c3cc(C)nc(C)c3)c3n2C[C@@H](C)OCC3)ccc1C [Example 53]
40 | 19.4 | Cc1cc(-c2nc(-c3ccc(Cl)c(C)c3)n3c2CCO[C@H](C)C3)ccn1 [Example 54]
41 | 21.9 | COc1cc(-c2nc(-c3ccnc(C)c3)c3n2C[C@@H](C)OCC3)ccc1C [Example 55]
42 | 21.9 | Cc1cc(-c2nc(-c3ccc(Cl)c(F)c3)n3c2CCO[C@H](C)C3)cc(C)n1 [Example 56]
43 | 28.5 | COc1cc(-c2nc(-c3ccc(Cl)c(OC)c3)n3c2CCO[C@H](C)C3)cc(C)n1 [Example 57]
44 | 41.8 | Cc1cc(-c2nc(-c3ccc(Cl)c(F)c3)n3c2CCO[C@H](C)C3)ccn1 [Example 58]
45 | 96.3 | COc1ccc(-c2nc(-c3cc(C)nc(C)c3)c3n2C[C@@H](C)OCC3)cc1F [Example 59]
46 | 119 | COc1ccc(-c2nc(-c3ccnc(C)c3)c3n2C[C@@H](C)OCC3)cc1F [Example 60]
47 | 21.7 | Cc1cc(-c2nc(-c3ccc(Cl)cc3)n3c2CCO[C@H](C)C3)cc(C)n1 [Example 61]
48 | 37.7 | Cc1cc(-c2nc(-c3cccc(Cl)c3)n3c2CCO[C@H](C)C3)cc(C)n1 [Example 62]
49 | 78.6 | Cc1cc(-c2nc(-c3cccc(Cl)c3)n3c2CCO[C@H](C)C3)ccn1 [Example 63]
50 | 14 | Cc1cc(-c2nc(-c3ccc(Cl)c(Cl)c3)n3c2CCO[C@H](C)C3)cc(C)n1 [Example 65]
51 | 12.6 | Cc1cc(-c2nc(-c3ccc(Cl)c(Cl)c3)n3c2CCO[C@H](C)C3)ccn1 [Example 66]
52 | 13.2 | Cc1cc(-c2nc(-c3ccc(Cl)c(OC(F)(F)F)c3)n3c2CCO[C@H](C)C3)cc(C)n1 [Example 68]
53 | 29.4 | COc1cc(-c2nc(-c3ccnc(C)c3)c3n2C[C@@H](CF)OCC3)ccc1C [Example 72]
54 | 35.3 | Cc1cc(-c2nc(-c3ccc(Cl)c(C)c3)n3c2CCO[C@H](CF)C3)ccn1 [Example 74]
55 | 31 | Cc1cc(-c2nc(-c3ccc(Cl)c(Cl)c3)n3c2CCO[C@H](CF)C3)ccn1 [Example 75]
56 | 11.5 | CC[C@@H]1Cn2c(-c3ccc(Cl)c(OC)c3)nc(-c3cc(C)nc(C)c3)c2CCO1 [Example 77]
57 | 3.8 | CC[C@@H]1Cn2c(-c3ccc(Cl)c(OC)c3)nc(-c3ccnc(C)c3)c2CCO1 [Example 78]
58 | 30.4 | COc1cc(-c2nc(-c3cc(C)nc(C)c3)c3n2C[C@@H](C(F)F)OCC3)ccc1Cl [Example 79]
59 | 6.3 | COc1cc(-c2nc(-c3cc(C)nc(C(F)F)c3)c3n2C[C@@H](C)OCC3)ccc1C [Example 80]
60 | 1.7 | CCOc1cc(-c2nc(-c3ccnc(C)c3)c3n2C[C@@H](C)OCC3)ccc1C(F)(F)F [Example 83]
61 | 16.7 | Cc1cc(-c2nc(-c3ccc(Cl)c(C)c3)n3c2CCO[C@H](C)C3)cc(CF)n1 [Example 88]
62 | 12.7 | COc1cc(-c2nc(-c3cc(C)nc(CF)c3)c3n2C[C@@H](C)OCC3)ccc1C [Example 90]
63 | 25.3 | Cc1cc(-c2nc(-c3ccc(F)c(OCC4CCC4)c3)n3c2CCO[C@H](C)C3)ccn1 [Example 100]
64 | 7.6 | CCc1ccc(-c2nc(-c3ccnc(C)c3)c3n2C[C@@H](C)OCC3)cc1OC [Example 101]
65 | 19.2 | COc1cc(-c2nc(-c3ccnc(C)c3)c3n2C[C@@H](C)OCC3)ccc1Cl [Example 114]
